# Patent US20050009840A1 (SUGEN, INC., priority 2003, published 2005)
# Read-outs that look alike come from different tables or passages of the source.
# Molecular target: T1, Met kinase domain (GST fusion protein) (Homo sapiens, UniProt P08581)
# T1 construct: Purified GST fusion protein containing the Met kinase domain
# Experiment: Met transphosphorylation assay (ELISA, poly(glu-tyr) substrate);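 also: Cell-free ELISA with plate-bound poly(Glu:Tyr 4:1) phosphorylated by GST-fused Met kinase domain plus ATP and Mn2+, phosphotyrosine detected by anti-phosphotyrosine antibody with HRP and ABTS read-out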
# Type: biochemical
# Conditions: read-out: Met IC50
# [1] = plain numbers in column Met IC50 (μM) of Table 2
# T1 sequence (P08581 1078-1345 limits assumed): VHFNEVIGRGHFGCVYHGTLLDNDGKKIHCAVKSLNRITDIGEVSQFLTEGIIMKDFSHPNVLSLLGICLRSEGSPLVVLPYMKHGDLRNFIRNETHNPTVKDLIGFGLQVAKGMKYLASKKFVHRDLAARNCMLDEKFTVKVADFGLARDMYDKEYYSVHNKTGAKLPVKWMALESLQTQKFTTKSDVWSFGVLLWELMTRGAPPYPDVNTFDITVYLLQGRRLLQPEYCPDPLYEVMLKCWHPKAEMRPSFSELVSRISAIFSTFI
SMILES,IC50 (Table 2) [µM],IC50 [1] [µM]
"CC(Oc1cc(-c2ccc(NS(C)(=O)=O)cc2)cnc1N)c1c(F)ccc(F)c1Cl (stereo not drawn) [Example I-364, N-(4-{6-Amino-5-[1-(2-chloro-3,6-difluoro-phenyl)-ethoxy]-pyridin-3-yl}-phenyl)-methanesulfonamide]",0.1,
"CC(Oc1cc(-c2ccc(N3CCCS3(=O)=O)cc2)cnc1N)c1c(F)ccc(F)c1Cl (stereo not drawn) [Example I-365, 3-[1-(2-Chloro-3,6-difluoro-phenyl)-ethoxy]-5-[4-(1,1-dioxo-1lambda*6*- isothiazolidin-2-yl)-phenyl]-pyridin-2-ylamine]",,0.14
"CC(Oc1cc(-c2ccc(NS(C)(=O)=O)cc2)cnc1N)c1c(Cl)ccc(F)c1Cl (stereo not drawn) [Example I-366, N-(4-{6-Amino-5-[1-(2,6-dichloro-3-fluoro-phenyl)-ethoxy]-pyridin-3-yl}-phenyl)-methanesulfonamide]",,0.076
"C[C@@H](Oc1cc(-c2ccc(NS(C)(=O)=O)cc2)cnc1N)c1c(F)ccc(F)c1Cl [Example I-368, N-(4-{6-Amino-5-[(R)-1-(2-chloro-3,6-difluoro-phenyl)-ethoxy]-pyridin-3-yl}-phenyl)-methanesulfonamide]",,0.066
"CC(Oc1cc(-c2ccsc2)cnc1N)c1c(Cl)ccc(F)c1Cl (stereo not drawn) [Example I-369, 3-[1-(2,6-Dichloro-3-fluoro-phenyl)-ethoxy]-5-thiophen-3-yl-pyridin-2-ylamine]",,0.055
"CC(Oc1cc(-c2cc3ccccc3s2)cnc1N)c1c(Cl)ccc(F)c1Cl (stereo not drawn) [Example I-370, 5-Benzo[b]thiophen-2-yl-3-[1-(2,6-dichloro-3-fluoro-phenyl)-ethoxy]-pyridin-2-ylamine]",,1.95
"CC(Oc1cc(-c2ccc(NC(=O)N3CCN(C)CC3)cc2)cnc1N)c1c(Cl)ccc(F)c1Cl (stereo not drawn) [Example I-371, 4-Methyl-piperazine-1-carboxylic acid (4-{6-amino-5-[1-(2,6-dichloro-3-fluoro-phenyl)-ethoxy]-pyridin-3-yl}-phenyl)-amide]",,0.057
"CC(Oc1cc(-c2ccc(NC(=O)NCCN3CCCC3)cc2)cnc1N)c1c(Cl)ccc(F)c1Cl (stereo not drawn) [Example I-372, 1-(4-{6-Amino-5-[1-(2,6-dichloro-3-fluoro-phenyl)-ethoxy]-pyridin-3-yl}-phenyl)-3-(2-pyrrolidin-1-yl-ethyl)-urea]",,0.21
"CC(Oc1cc(-c2ccc(NC(=O)NCCO)cc2)cnc1N)c1c(Cl)ccc(F)c1Cl (stereo not drawn) [Example I-373, 1-(4-{6-Amino-5-[1-(2,6-dichloro-3-fluoro-phenyl)-ethoxy]-pyridin-3-yl}-phenyl)-3-(2-hydroxy-ethyl)-urea]",,0.064
"CC(Oc1cc(-c2ccc(NC(=O)NCCN3CCOCC3)cc2)cnc1N)c1c(Cl)ccc(F)c1Cl (stereo not drawn) [Example I-374, 1-(4-{6-Amino-5-[1-(2,6-dichloro-3-fluoro-phenyl)-ethoxy]-pyridin-3-yl}-phenyl)-3-(2-morpholin-4-yl-ethyl)-urea]",,0.062
"CC(Oc1cc(-c2ccc(NC(=O)N3CC[C@@H](N)C3)cc2)cnc1N)c1c(Cl)ccc(F)c1Cl (stereo partly drawn) [Example I-375, (R)-3-Amino-pyrrolidine-1-carboxylix acid (4-{6-amino-5-[1-(2,6-dichloro-3-fluoro-phenyl)-ethoxy]-pyridin-3-yl}-phenyl)-amide]",,0.053
"CC(Oc1cc(-c2ccc(NC(=O)N3CC[C@H](N)C3)cc2)cnc1N)c1c(Cl)ccc(F)c1Cl (stereo partly drawn) [Example I-376, (S)-3-Amino-pyrrolidine-1-carboxylic acid (4-{6-amino-5-[1-(2,6-dichloro-3-fluoro-phenyl)-ethoxy]-pyridin-3-yl}-phenyl)-amide]",,0.052
"CC(Oc1cc(-c2ccc(NC(=O)NC3CCN(C)CC3)cc2)cnc1N)c1c(Cl)ccc(F)c1Cl (stereo not drawn) [Example I-377, 1-(4-{6-Amino-5-[1-(2,6-dichloro-3-fluoro-phenyl)-ethoxy]-pyridin-3-yl}-phenyl)-3-(1-methyl-pipendin-4-yl)-urea]",,0.04
"CC(Oc1cc(-c2ccc(NC(=O)N3CC[C@@H](N)C3)cc2)cnc1N)c1c(F)ccc(F)c1Cl (stereo partly drawn) [Example I-379, (R)-3-Amino-pyrrolidine-1-carboxylic acid (4-{6-amino-5-[1-(2-chloro-3,6-difluoro-phenyl)-ethoxy]-pyridin-3-yl}-phenyl)-amide]",,0.069
"CC(Oc1cc(-c2ccc(NC(=O)N3CC[C@H](N)C3)cc2)cnc1N)c1c(F)ccc(F)c1Cl (stereo partly drawn) [Example I-380, (S)-3-Amino-pyrrolidine-1-carboxylic acid (4-{6-amino-5-[1-(2-chloro-3,6-difluoro-phenyl)-ethoxy}-pyridin-3-yl}-phenyl)-amide]",,0.075
"CC(Oc1cc(-c2ccc(NC(=O)NCCN3CCCC3)cc2)cnc1N)c1c(F)ccc(F)c1Cl (stereo not drawn) [Example I-383, 1-(4-{6-Amino-5-[1-(2-chloro-3,6-difluoro-phenyl)-ethoxy]-pyridin-3-yl}-phenyl)-3-(2-pyrrolidin-1-yl-ethyl)-urea]",,0.11
"CC(Oc1cc(-c2cccc(C(=O)N3CC[C@H](N)C3)c2)cnc1N)c1c(Cl)cccc1Cl (stereo partly drawn) [Example I-397, (3-{6-Amino-5-[1-(2,6-dichloro-phenyl)-ethoxy]-pyridin-3-yl}-phenyl)-((S)-3-amino-pyrrolidin-1-yl)-methanone]",,0.055
"CC(Oc1cc(-c2cccc(C(=O)N3CC[C@@H](N)C3)c2)cnc1N)c1c(Cl)cccc1Cl (stereo partly drawn) [Example I-398, (3-{6-Amino-5-[1-(2,6-dichloro-phenyl)-ethoxy]-pyridin-3-yl}-phenyl)-((R)-3-amino-pyrrolidin-1-yl)-methanone]",,0.072

# Now from value to compound:
IC50 (Table 2) [µM],IC50 [1] [µM],SMILES
,0.038,"CC(Oc1cc(-c2ccc(NC(=O)NC3CCN(C)CC3)cc2)cnc1N)c1c(F)ccc(F)c1Cl (stereo not drawn) [Example I-378, 1-(4-{6-Amino-5-[1-(2-chloro-3,6-difluoro-phenyl)-ethoxy]-pyridin-3-yl}-phenyl)-3-(1-methyl-pipendin-4-yl)-urea]"
,0.11,"CC(Oc1cc(-c2ccc(NC(=O)NCCO)cc2)cnc1N)c1c(F)ccc(F)c1Cl (stereo not drawn) [Example I-381, 1-(4-{6-Amino-5-[1-(2-chloro-3,6-difluoro-phenyl)-ethoxy]-pyridin-3-yl}-phenyl)-3-(2-hydroxy-ethyl)-urea]"
,0.082,"CC(Oc1cc(-c2ccc(NC(=O)N3CCN(C)CC3)cc2)cnc1N)c1c(F)ccc(F)c1Cl (stereo not drawn) [Example I-382, 4-Methyl-piperazine-1-carboxylic acid (4-{6-amino-5-[1-(2-chloro-3,6-difluoro-phenyl)-ethoxy]-pyridin-3-yl}-phenyl)-amine]"
,0.13,"CC(Oc1cc(-c2ccc(NC(=O)NCCN3CCOCC3)cc2)cnc1N)c1c(F)ccc(F)c1Cl (stereo not drawn) [Example I-384, 1-(4-{6-Amino-5-[1-(2-chloro-3,6-difluoro-phenyl)-ethoxy]-pyridin-3-yl}-phenyl)-3-(2-morpholin-4-yl-ethyl)-urea]"
,0.13,"CC(Oc1cc(-c2ccc(NC(=O)N3CCC[C@@H]3CN3CCCC3)cc2)cnc1N)c1c(F)ccc(F)c1Cl (stereo partly drawn) [Example I-385, (R)-2-Pyrrolidin-1-ylmethyl-pyrrolidine-1-carboxylic acid (4-{6-amino-5-[1-(2-chloro-3,6-difluoro-phenyl)-ethoxy]-pyridin-3-yl}-phenyl)-amide]"
,0.16,"CC(Oc1cc(-c2cccc(C(=O)N3C[C@@H](C)N[C@@H](C)C3)c2)cnc1N)c1c(Cl)cccc1Cl (stereo partly drawn) [Example I-387, (3-{6-Aminno-5-[1-(2,6-dichloro-phenyl)-ethoxy]-pyridin-3-yl}-phenyl)-((3R,5S)-3,5-dimethyl-piperazin-1-yl)-methanone]"
,0.1,"CC(Oc1cc(-c2cccc(C(=O)N3CCC(N4CCCC4)CC3)c2)cnc1N)c1c(Cl)cccc1Cl (stereo not drawn) [Example I-388, (3-{6-Amino-5-[1-(2,6-dichloro-phenyl)-ethoxy]-pyridin-3-yl}-phenyl)-(4-pyrrolidin-1-yl-piperidin-1-yl)-methanone]"
,0.13,"CC(Oc1cc(-c2cccc(C(=O)NCCN3CCCC3)c2)cnc1N)c1c(Cl)cccc1Cl (stereo not drawn) [Example I-389, 3-{6-Amino-5-[1-(2,6-dichloro-phenyl)-ethoxy]-pyridin-3-yl}-N-(2-pyrrolidin-1-yl-ethyl)-benzamide]"
,0.12,"CC(Oc1cc(-c2cccc(C(=O)NCCN3CCOCC3)c2)cnc1N)c1c(Cl)cccc1Cl (stereo not drawn) [Example I-390, 3-{6-Amino-5-[1-(2,6-dichloro-phenyl)-ethoxy]-pyridin-3-yl}-N-(2-morpholin-4-yl-ethyl)-benzamide]"
,0.098,"CC(Oc1cc(-c2cccc(C(=O)N3CCC[C@H]3CN3CCCC3)c2)cnc1N)c1c(Cl)cccc1Cl (stereo partly drawn) [Example I-391, (3-{6-Amino-5-[1-(2,6-dichloro-phenyl)-ethoxy]-pyridin-3-yl}-phenyl)-((S)-2-pyrrolidin-1-ylmethyl-pyrrolidin-1-yl)-methanone]"
,0.072,"CC(Oc1cc(-c2cccc(C(=O)NCCCN3CCCC3)c2)cnc1N)c1c(Cl)cccc1Cl (stereo not drawn) [Example I-392, 3-{6-Amino-5-[1-(2,6-dichloro-phenyl)-ethoxy]-pyridin-3-yl}-N-(3-pyrrolidin-1-yl-propyl)-benzamide]"
,0.079,"CC(=O)N1CCN(CCNC(=O)c2cccc(-c3cnc(N)c(OC(C)c4c(Cl)cccc4Cl)c3)c2)CC1 (stereo not drawn) [Example I-393, N-[2-(4-Acetyl-piperazin-1-yl)-ethyl]-3-{6-amino-5-[1-(2,6-dichloro-phenyl)-ethoxy]-pyridin-3-yl}-benzamide]"
,0.061,"CC(Oc1cc(-c2cccc(C(=O)NC3CCN(C)CC3)c2)cnc1N)c1c(Cl)cccc1Cl (stereo not drawn) [Example I-394, 3-{6-Amino-5-[1-(2,6-dichloro-phenyl)-ethoxy]-pyridin-3-yl}-N-(1-methyl-piperidin-4-yl)-benzamide]"
,0.058,"CC(Oc1cc(-c2cccc(C(=O)N3CCN(C)CC3)c2)cnc1N)c1c(Cl)cccc1Cl (stereo not drawn) [Example I-395, (3-{6-amino-5-[1-(2,6-dichloro-phenyl)-ethoxy]-pyridin-3-yl}-phenyl)-(4-methyl-piperazin-1-yl)-methanone]"
,0.18,"CC(Oc1cc(-c2cccc(C(=O)N3CCC[C@@H]3CN3CCCC3)c2)cnc1N)c1c(Cl)cccc1Cl (stereo partly drawn) [Example I-396, (3-{6-Amino-5-[1-(2,6-dichloro-phenyl)-ethoxy]-pyridin-3-yl}-phenyl)-((R)-2-pyrrolidin-1-ylmethyl-pyrrolidin-1-yl)-methanone]"
